Results as given in patent US9782491B2, “Peptide conjugates for treating pain” (priority 2012, dated 2017).
Where “and” joins values, the source holds several entries; their conditions need not be identical. Equal values may be shown once. Read-outs that look alike come from different tables or passages of the source. Ends that are not written are not given here.

Key:
adult mouse DRG neurons = experiment: K+-stimulated release of iCGRP from isolated sensory neurons (RIA); format: cell-based; settings: 10 μM peptide; for basal or resting release of iCGRP: 3.5 mM KCl
Experimental: EXAMPLE. Primary dorsal root ganglion (DRG) neuronal cultures. Isolation of sensory neurons from 1 to 2 month old wildtype C57BL/6J and Nf1^+/− C57BL/6J littermates (34) was performed exactly as described previously (11,35,36) while DRGs from adult rats were prepared as per Brittain and colleagues (11). All animals were housed, bred, and had free access to food and water in the Indiana University Laboratory Animal Research Center and used in procedures approved by the Animal Use and Care Committee of the Indiana University School of Medicine. All animals were genotyped prior to use in experiments.
EXAMPLE. Stimulated-release of iCGRP. Measurement of stimulus-evoked release and content of immunoreactive CGRP (iCGRP) from isolated sensory neurons was accomplished as previously published (11,33,35). After 5-7 days in culture, media was removed and the basal or resting release of iCGRP was measured from cells incubated for 10 minutes in HEPES buffer consisting of (in mM): 25 HEPES, 135 NaCl, 3.5 KCl, 2.5 CaCl2, 1 MgCl2, 3.3 dextrose, and 0.1% (w/v) bovine serum albumin, pH 7.4, and maintained at 37° C. […] The amount of iCGRP released in each incubation was measured by a radioimmunoas say (RIA). The minimum amount of iCGRP detected by the RIA is 5 fmol with a 95% confidence interval (37). After the release protocol, the remaining peptide content in each well was determined by exposing the cells to 2 N acetic acid for 10 minutes. Aliquots of acid solution were diluted in HEPES and iCGRP levels were determined by RIA. The release of iCGRP during the 10 min incubation period is expressed as percent of the total content. […]
EXAMPLE. […] The KCl-stimulated release of CGRP was measured from sensory neurons exposed to TAT-control, TAT-L1 or TAT-Ct-dis peptides, at 10 μM (a concentration at which Ca^2+ influx was largely unaffected by both peptides), included in the 10 minutes prior to and throughout the high K^+ exposures (total peptide exposure of 30 min). […]

[1] = system: adult Nf1+/- mice DRG neurons; experiment: K+-stimulated release of iCGRP from Nf1+/- sensory neurons (RIA); format: cell-based, mouse
d4T-treated rats = experiment: d4T-induced mechanical hypersensitivity, paw withdrawal threshold; settings: administered at 10 mg
ddC-injected rats = experiment: ddC model of peripheral neuropathy, von Frey paw withdrawal threshold; format: in vivo, rat
naïve rodents = settings: in vivo, ip
adult rat DRG neurons = experiment: Fura-2 calcium imaging of K+-stimulated Ca2+ influx; format: cell-based
[2] = target: interaction between CaV2.2 and CRMP2 (Rattus norvegicus, UniProt P47942); experiment: Immunoprecipitation with CaV2.2 antibody from rat dorsal root ganglia lysate, CRMP2 immunoblot; format: biochemical; settings: 10 μM peptide added for 30 min; rat DRG
rats with TNI = settings: 10 mg/kg i.p.; evaluated at 1 h and 4 h
Experimental: Antinociceptive efficacy following acute and continuous systemic infusion. Test animals with tibial nerve injury (TNI)-induced neuropathic pain behavior (over 6 months) were administered to a single intraperitoneal injection or continual constant-rate infusion of polyarginine-conjugated CBD3A6K (ST2-106). Female Sprague-Dawley rats with TNI were administered a single injection of saline or 20 mg/kg of ST2-106.
Female Sprague-Dawley rats with TNI were infused with saline or ST2-106 over a 24 to 72 hour period using subcutaneously implanted Alzet® osmotic minipumps. […] Rats were used at 28 days after tibial nerve injury.
Paw-withdrawal thresholds (PWT in millinewtons, mN) were measured in naïve rats and rats subjected to spared nerve injury (i.e. tibial nerve ligation, TNI).
Paw-withdrawal thresholds (PWT in millinewtons, mN) were also measured in naïve rats and rats subjected to TNI when treated with compounds described herein or vehicle for extended periods.

[3] = system: lumbar 4-5 DRG neurons from d4T-treated rats; experiment: Current clamp recording of action potential firing; format: cell-based, rat; settings: 10 μM
Experimental: EXAMPLE. […] Current clamp recordings were performed on small-to-medium (>30 μm->40 μm) diameter lumbar 4-5 DRG neurons from d4T-treated rats. Firing of 4-6 action potentials (APs) was elicited by a 1 second depolarizing current injection (ranging from 0.1 to 0.4 nA depending on the cell) every 30 seconds.

[4] = system: R-type (CaV2.3) Ca2+ currents; experiment: R-type Ca2+ current recording in sensory neurons; format: cell-based
[5] = cell permeability; Wender et al.; cited from earlier work

YGRKKRRQRRR-YLEWIFKAEEVMLAE (YGRKKRRQRRRYLEWIFKAEEVMLAE) [TAT-L1]
basal or resting release of iCGRP (adult mouse DRG neurons): 1.04±0.09 % total peptide content/10 min

YGRKKRRQRRR-WEAKEMLYFEALVIE (YGRKKRRQRRRWEAKEMLYFEALVIE) [TAT-control, reference compound]
basal or resting release of iCGRP (adult mouse DRG neurons): 1.58±0.17 % total peptide content/10 min and 0.92±0.09 % total peptide content/10 min
increase in iCGRP release over basal [1]: 8 to 10 fold

YGRKKRRQRRRARSRLAELRGVPRGL [ST1-104]
effect on healthy animals (pre-d4T) (d4T-treated rats): Neither TAT-CBD3 nor TAT-CBD3A6K administered at 10 mg showed an effect

YGRKKRRQRRR-NSSFPSIHCSSSWSEE [TAT-Ct-dis]
less iCGRP release compared to TAT-control (adult mouse DRG neurons; 50 mM KCl): ~70%
peptide-induced reversal of hypersensitivity (ddC-injected rats; 4 mg/kg i.p., two hours after injection): diminished to pre-peptide levels
reversal of tactile hypersensitivity (PWT) (ddC-injected rats; ~4 mg/kg i.p., 1 h after injection, seven days after ddC): Almost complete reversal of tactile hypersensitivity
less iCGRP release compared to TAT-control [1]: ~70%

RRRRRRRRRARSRLKELRGVPRGL [ST2-106]
PWT in naïve animals (naïve rodents): unaffected

YGRKKRRQRRRARSRLKELRGVPRGL [ST1-105]
effect on healthy animals (pre-d4T) (d4T-treated rats): Neither TAT-CBD3 nor TAT-CBD3A6K administered at 10 mg showed an effect

NSSFPSIHCSSWSEE [Ct-dis]
peptide-mediated inhibition of [Ca2+]c influx, Ct-dis versus L1 (adult rat DRG neurons; 30 μM): much more pronounced
K+-stimulated [Ca2+]c influx (adult rat DRG neurons; 20 min incubation, 3 μM and 30 μM (FIG. 1), 46.5 mM KCl): concentration-dependent decrease
amount of CRMP2 captured with CaV2.2 antibody [2]: reduced the amount of CRMP2 that could be captured

ARSRLAELRGVPRGL (listed as Homo sapiens) [CBD3, short peptide derived from CRMP2]
less iCGRP release compared to TAT-control ([1]; Nf1+/- neurons, 50 mM KCl, 10 μM peptide): ~78%

RRRRRRRRRARSRLAELRGVPRGL [ST2-104]
nerve-injury induced nociception (PWT) (rats with TNI): reverses nerve-injury induced nociception

YGRKKRRQRRRARSRLAELLGVPRGL [ST1-106]
number of elicited action potentials [3]: reduces the number of elicited action potentials
R-type calcium current density [4]: showed a significant decrease over control

R9: oligoarginine (SEQ ID NO: 1) (RRRRRRRRR)
greater penetration than TAT [5]: 100 fold
